In patent publication US4663334A, “Heteroaromatic acetylenes useful as antihypertensive agents” (McNeilab, Inc., priority 1985, dated 1987):
Counter-ions that a name gives are not always drawn.

Test system: spontaneously hypertensive rats
Experiment: Spontaneously Hypertensive Rat (SHR) test
Type: in vivo
Conditions: oral dose 30 mg/kg
Source text: The activity of compounds of formula (I) for the treatment of hypertension may be determined using the Spontaneously Hypertensive Rat (SHR) test as described below.
In this test, the arterial pressure of adult spontaneously hypertensive rats (Charles River) is monitored directly via an aortic cannula. The SH rats are anesthetized with an inhalation anesthetic (ether). The left carotid artery is isolated and cannulated. The tip of the cannula is advanced to the aorta and the cannula is exteriorized behind the neck at the level of the scapula. Animals are placed in individual cages and allowed to recover from the anesthetic and are kept unrestrained. The arterial cannula is connected to the pressure transducer which is attached to the recorder. The test compounds are administered to at least 3 rats at doses selected in the range of 0.1 to 100 mg/kg of body weight by intraperitoneal (i.p.) or oral (p.o.) routes of administration. The arterial pressure and heart rate are monitored for a minimum of 24 hours. A test compound is considered to be active as an antihypertensive agent if the mean arterial pressure (MAP) indicates a fall of >15 mm of Hg. Each animal serves as its own control.

CC(C)(C)NCC(O)COc1ccccc1C#Cc1ccncc1.O=C(O)/C=C/C(=O)O (stereo not drawn) [Example 1, 1-[(1,1-Dimethylethyl)amino]-3-[2-(4-pyridinylethynyl)phenoxy]-2-propanol (E)-2-Butenedioate]
duration of blood pressure reduction: 7.5 h
heart rate change: -87 beats/min
reduction of hypertensive blood pressure (mean arterial pressure): -46 mm Hg

CC(C)(C)NCC(O)COc1ccccc1C#Cc1cccnc1 (stereo not drawn) [Example 2, 1-[(1,1-Dimethylethyl)amino]-3-[2-(3-pyridinylethynyl)phenoxy]-2-propanol Hydrochloride Hydrate (4:4:1)]
duration of blood pressure reduction: 10.5 h
heart rate change: -41 beats/min
reduction of hypertensive blood pressure (mean arterial pressure): -54 mm Hg
